Measurements: paper PMC8002477, “Bioactive Indole Diketopiperazine Alkaloids from the Marine Endophytic Fungus Aspergillus sp. YJ191021” (Marine Drugs, 2021)
Converted amounts (≈) assume the structure as drawn. Read-outs that look alike come from different tables or passages of the source.

How the values were obtained:
[1] = test system: Xanthomonas oryzae pv. oryzae; assay: microbe, parasite or virus in culture; format: cell-based; conditions: 24 h, read-out: MIC, Xe (Xanthomonas oryzae pv. oryzae)
[2] = test system: Xanthomonas oryzae pv. oryzicola; assay: microbe, parasite or virus in culture; format: cell-based; conditions: 24 h, read-out: MIC, Xa (Xanthomonas oryzae pv. oryzicola)
[3] = test system: Edwardsiella tarda; assay: microbe, parasite or virus in culture; format: cell-based; conditions: read-out: MIC, Et (Edwardsiella tarda)
[4] = test system: Vibrio anguillarum; assay: microbe, parasite or virus in culture; format: cell-based; conditions: read-out: MIC, Va (Vibrio anguillarum)
[5] = test system: Aeromonas hydrophilia; assay: microbe, parasite or virus in culture; format: cell-based; conditions: read-out: MIC, Ah (Aeromonas hydrophilia)
[6] = test system: Vibrio parahaemolyticus; assay: microbe, parasite or virus in culture; format: cell-based; conditions: read-out: MIC, Vp (Vibrio parahaemolyticus)
[7] = test system: Fusarium oxysporum; assay: Antimicrobial MIC assay, Fusarium oxysporum; format: cell-based; conditions: 28 °C, 3-4 days, read-out: MIC, Fo (Fusarium oxysporum)
[8] = test system: Colletotrichum gloeosporioides; assay: Antimicrobial MIC assay, Colletotrichum gloeosporioides; format: cell-based; conditions: 28 °C, 3-4 days, read-out: MIC, Cg (Colletotrichum gloeosporioides)
[9] = test system: THP-1 cells; assay: MTT viability of THP-1 cells (safe concentration); conditions: concentration range of THP-1 cells viability over 80%, 36 h
[10] = test system: Propionibacterium acnes (ATCC6919); assay: Antimicrobial assay against P. acnes (to exclude false anti-inflammatory activity); conditions: Cutibacterium acnes, ATCC6919, read-out: P. acnes MIC
[11] = test system: Rhizoctonia solani; assay: Antimicrobial MIC assay, Rhizoctonia solani; format: cell-based; conditions: 28 °C, 3-4 days, read-out: MIC, Rs (Rhizoctonia solani)
[12] = test system: THP-1 cells; conditions: human, 36 h

| SMILES | MIC [1] | MIC [2] | MIC [7] | MIC [8] | THP-1 Cells SC (safe concentration) [9] | MIC [10] | further results |
| --- | --- | --- | --- | --- | --- | --- | --- |
| O=C(N[C@H](CO)[C@H](O)c1ccc([N+](=O)[O-])cc1)C(Cl)Cl [Chloromycetin, reference compound] | 12.5 µg/mL (≈ 38.7 µM) | 12.5 µg/mL (≈ 38.7 µM) |  |  |  |  | MIC [3]: 2 µg/mL (≈ 6.19 µM); MIC [4]: 0.5 µg/mL (≈ 1.55 µM); MIC [5]: 2 µg/mL (≈ 6.19 µM); MIC [6]: 2 µg/mL (≈ 6.19 µM) |
| CC1(C)C=Cc2c(ccc3c2[N+]([O-])=C2C3=CC34NC(=O)C5(CCCN5C3=O)CC4C2(C)C)O1 (stereo not shown) [Compound 1, Asperthrin A] | 50 µg/mL (≈ 112 µM) | 12.5 µg/mL (≈ 28.1 µM) | > 100 µg/mL | > 100 µg/mL | 0 to 5 µM | > 5 µM | MIC [3]: 16 µg/mL (≈ 35.9 µM); MIC [4]: 8 µg/mL (≈ 18 µM); MIC [5]: 32 µg/mL (≈ 71.8 µM); MIC [6]: 16 µg/mL (≈ 35.9 µM) |
| CC(=O)OC1C23NC(=O)C4(CCCN4C2=O)CC3C(C)(C)C12C(=O)Nc1c2ccc2c1C=CC(C)(C)O2 (stereo not shown) [Compound 5, Asperthrin E] | > 100 µg/mL | > 100 µg/mL |  |  | 0 to 40 µM | > 40 µM | MIC ([11]; agricultural pathogenic fungus): 25 µg/mL (≈ 49.4 µM); MIC ([7]; agricultural pathogenic fungus): > 100 µg/mL; MIC ([8]; agricultural pathogenic fungus): > 100 µg/mL |
| CC1(C)C=Cc2c(ccc3c2NC24N5C(=O)C6(O)CCCN6C(=O)C5CC32OC(CO)C4(C)C)O1 (stereo not shown) [Compound 6, Asperthrin F] |  |  |  |  | 0 to 50 µM | > 50 µM |  |
| CC1(C)C=Cc2c(ccc3c2NC(=O)[C@@]32[C@H](O)[C@@]34NC(=O)[C@]5(CCCN5C3=O)C[C@H]4C2(C)C)O1 [Compound 9, sclerotiamide] | > 100 µg/mL | > 100 µg/mL | > 100 µg/mL | > 100 µg/mL | 0 to 50 µM | > 50 µM | MIC [11]: 25 µg/mL (≈ 53.9 µM) |
| CC1(C)C=Cc2c(ccc3c2N(O)C(=O)C32C(O)C34NC(=O)C5(CCCN5C3=O)CC4C2(C)C)O1 (stereo not shown) [Compound 10, notoamide H] | > 100 µg/mL | > 100 µg/mL | > 100 µg/mL | > 100 µg/mL | 0 to 50 µM | > 50 µM | MIC [11]: 25 µg/mL (≈ 52.1 µM) |
| CC1(C)C=Cc2c(ccc3c4c([nH]c23)C(C)(C)[C@@H]2C[C@]35CCCN3C(=O)[C@]2(NC5=O)[C@H]4O)O1 [Compound 12, notoamide R] |  |  |  |  | 0 to 50 µM | > 50 µM |  |
| CC(=O)N1CCN(c2ccc(OCC3COC(Cn4ccnc4)(c4ccc(Cl)cc4Cl)O3)cc2)CC1 (stereo not shown) [Ketoconazole, ketoconazole, reference compound] |  |  |  |  |  |  | MIC ([11]; agricultural pathogenic fungus): 0.78 µg/mL (≈ 1.47 µM); MIC ([7]; agricultural pathogenic fungus): 100 µg/mL (≈ 188 µM); MIC ([8]; agricultural pathogenic fungus): 12.5 µg/mL (≈ 23.5 µM) |
| CC1=C(/C=C/C(C)=C/C=C/C(C)=C/C(=O)O)C(C)(C)CCC1 [Tretinoin, reference compound] |  |  |  |  |  | > 50 µM | THP-1 Cells SC (safe concentration) [12]: 0 to 50 µM |
